Tests used:
[1] = target: T1, tubulin (Sus scrofa, UniProt P02550+P02554); assay: Tubulin polymerization inhibitory assay; type: biochemical
T1 construct: purchased Cytoskeleton Inc., Denver, CO, USA
Excerpt: The substances’ effects on tubulin polymerization were examined using the Tubulin Polymerization Assay Kit (Cytoskeleton Inc., Denver, CO, USA) according to the supplier’s instructions, with details described in Appendix A..
The activity of compounds on tubulin polymerization was investigated using the Tubulin Polymerization Assay Kit (Cytoskeleton Inc., Denver, CO, USA), which works via fluorescent reporter enhancement. […] Docetaxel and vincristine (Apoteket AB, Stockholm, Sweden) served as positive stabilizing and destabilizing controls. Both were used at a 3 µM concentration in PBS.

[2] = tested on: multi-drug resistant K562R cell line; set-up: method as in PMID 33038796; conditions: cited from earlier work
[3] = tested on: SGC-7901 cancer cell line; set-up: method as in PMID 37182330; conditions: cited from earlier work

T1 sequence (P02554 whole entry): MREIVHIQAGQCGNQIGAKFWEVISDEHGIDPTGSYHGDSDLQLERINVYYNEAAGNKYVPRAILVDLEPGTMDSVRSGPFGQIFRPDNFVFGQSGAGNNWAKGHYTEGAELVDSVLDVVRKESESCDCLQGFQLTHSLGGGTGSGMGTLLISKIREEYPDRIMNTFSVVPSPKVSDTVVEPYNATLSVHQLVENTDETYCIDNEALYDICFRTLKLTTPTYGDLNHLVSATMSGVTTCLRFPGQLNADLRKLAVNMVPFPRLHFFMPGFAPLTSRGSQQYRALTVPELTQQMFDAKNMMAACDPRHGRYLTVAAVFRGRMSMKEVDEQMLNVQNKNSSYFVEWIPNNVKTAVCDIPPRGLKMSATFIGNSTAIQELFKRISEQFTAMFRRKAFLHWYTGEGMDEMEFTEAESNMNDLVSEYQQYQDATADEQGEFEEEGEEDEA
T1 sequence (P02550 whole entry): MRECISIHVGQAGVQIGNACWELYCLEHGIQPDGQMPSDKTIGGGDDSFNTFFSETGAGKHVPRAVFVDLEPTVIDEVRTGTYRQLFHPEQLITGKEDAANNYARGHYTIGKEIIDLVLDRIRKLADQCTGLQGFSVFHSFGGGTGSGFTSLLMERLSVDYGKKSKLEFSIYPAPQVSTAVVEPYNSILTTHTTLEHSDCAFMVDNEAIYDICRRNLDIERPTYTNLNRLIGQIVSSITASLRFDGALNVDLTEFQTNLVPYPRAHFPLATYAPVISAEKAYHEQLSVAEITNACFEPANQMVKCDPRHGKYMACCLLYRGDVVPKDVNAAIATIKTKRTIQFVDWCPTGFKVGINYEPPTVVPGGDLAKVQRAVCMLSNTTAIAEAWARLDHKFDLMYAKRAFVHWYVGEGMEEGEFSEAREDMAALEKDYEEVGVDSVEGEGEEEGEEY

With `COc1ccc(/C=C\c2cc(OC)c(OC)c(OC)c2)cc1O` [CA-4, combretastatin A-4, reference compound] the “%inhibition” value ([1]; conc 0.01 (unit not given; IC50 from this curve in µg/ml)) was 8.7%, the “%inhibition” value ([1]; conc 0.1 (unit not given; IC50 from this curve in µg/ml)) was 21.2% and the “%inhibition” value ([1]; conc 1 (unit not given; IC50 from this curve in µg/ml)) was 34.9%. For the same compound, the “%inhibition” value ([1]; conc 10 (unit not given; IC50 from this curve in µg/ml)) was 59% and the “%inhibition” value ([1]; conc 100 (unit not given; IC50 from this curve in µg/ml)) was 84.2%.
In the case of `Cc1cc(-c2cccc(-c3c[nH]c4ccccc34)n2)c2ccccc2n1` [Compound III], the “antiproliferative potency, times more effective than CA-4” value [2] is given as 12 times and the “antiproliferative potency, times more effective than isoCA-4” value [2] is given as 1.5 times.
In the case of `COc1cc(-c2nc3scc(-c4cc(Cl)cc(Cl)c4)n3n2)cc(OC)c1OC` [IV], the IC50 [3] is listed as 210 nM.

— article PMC11859928, “Design, Synthesis, and Antiproliferative Activity of Novel Indole/1,2,4-Triazole Hybrids as Tubulin Polymerization Inhibitors” (Pharmaceuticals, 2025)
